# Reference: ChEMBL document CHEMBL3885861, “Open TG-GATES”
# Species: Rattus norvegicus
# Experiment: Open TG-GATES - Regimen: Single
# Format: toxicity, organism-based, Sprague-Dawley
# Design: regimen Single, gender Male, age 6 weeks
# Settings: in vivo, po, 3 mg/kg, route gavage, dose level Low; for APTT / Bas / Eos / Fbg / Hb / Ht / Lym / MCH / MCHC / MCV / Mono / Neu / PT / Plat / RBC / Ret / WBC: tissue Blood; for KIDNEY_L / KIDNEY_R / KIDNEY_TOTAL: tissue Kidney; for LIVER: tissue Liver; for A/G / ALP / ALT / AST / BUN / CRE / Ca / Cl / DBIL / GLC / IP / K / LDH / Na / PL / RALB / TBIL / TC / TG / TP / gamma-GTP: tissue Plasma
smiles,measurement,setting,value
C=CCO [ALLYL ALCOHOL],TERMINAL_BW,3 h,223.5 g
same,APTT,3 h,18.8 s
same,Bas,3 h,0%
same,Eos,3 h,1%
same,Fbg,3 h,234.6 mg/dL
same,Hb,3 h,13.8 g/dL
same,Ht,3 h,38.7%
same,Lym,3 h,76%
same,MCH,3 h,21.7 pg
same,MCHC,3 h,35.6%
same,MCV,3 h,60.9 fL
same,Mono,3 h,3.2%
same,Neu,3 h,19.8%
same,PT,3 h,11.8 s
same,Plat,3 h,126.8 x10_4/uL
same,RBC,3 h,635.2 x10_4/ul
same,Ret,3 h,6.4%
same,WBC,3 h,81.6 x10_2/uL
same,KIDNEY_L,3 h,1 g
same,KIDNEY_R,3 h,1 g
same,KIDNEY_TOTAL,3 h,2 g
same,LIVER,3 h,10.2 g
same,A/G,3 h,1.6
same,ALP,3 h,1094.8 IU/L
same,ALT,3 h,37.4 IU/L
same,AST,3 h,67.6 IU/L
same,BUN,3 h,11.4 mg/dL
same,CRE,3 h,0.4 mg/dL
same,Ca,3 h,11.2 mg/dL
same,Cl,3 h,100.6 meq/L
same,DBIL,3 h,0.5 mg/dL
same,GLC,3 h,195.2 mg/dL
same,IP,3 h,8.6 mg/dL
same,K,3 h,3.7 meq/L
same,LDH,3 h,235.4 IU/L
same,Na,3 h,139.8 meq/L
same,PL,3 h,181 mg/dL
same,RALB,3 h,3.5 g/dL
same,TBIL,3 h,0.6 mg/dL
same,TC,3 h,81 mg/dL
same,TG,3 h,262 mg/dL
same,TP,3 h,5.7 g/dL
same,gamma-GTP,3 h,0.6 IU/L
same,TERMINAL_BW,6 h,220.1 g
same,APTT,6 h,19 s
same,Bas,6 h,0%
same,Eos,6 h,1%
same,Fbg,6 h,220.8 mg/dL
same,Hb,6 h,13.2 g/dL
same,Ht,6 h,38.3%
same,Lym,6 h,76%
same,MCH,6 h,21 pg
same,MCHC,6 h,34.3%
same,MCV,6 h,61 fL
same,Mono,6 h,3.8%
same,Neu,6 h,18.8%
same,PT,6 h,12.2 s
same,Plat,6 h,122.5 x10_4/uL
same,RBC,6 h,627.4 x10_4/ul
same,Ret,6 h,7.1%
same,WBC,6 h,102.5 x10_2/uL
same,KIDNEY_L,6 h,0.9 g
same,KIDNEY_R,6 h,1 g
same,KIDNEY_TOTAL,6 h,1.9 g
same,LIVER,6 h,9.4 g
same,A/G,6 h,1.6
same,ALP,6 h,1095 IU/L
same,ALT,6 h,33 IU/L
same,AST,6 h,70.6 IU/L
same,BUN,6 h,7.8 mg/dL
same,CRE,6 h,0.4 mg/dL
same,Ca,6 h,10.7 mg/dL
same,Cl,6 h,102.8 meq/L
same,DBIL,6 h,0.1 mg/dL
same,GLC,6 h,192.4 mg/dL
same,IP,6 h,8.7 mg/dL
same,K,6 h,3.9 meq/L
same,LDH,6 h,222.4 IU/L
same,Na,6 h,141.2 meq/L
same,PL,6 h,149.6 mg/dL
same,RALB,6 h,3.4 g/dL
same,TBIL,6 h,0.2 mg/dL
same,TC,6 h,76.4 mg/dL
same,TG,6 h,77.8 mg/dL
same,TP,6 h,5.5 g/dL
same,gamma-GTP,6 h,1 IU/L
same,TERMINAL_BW,9 h,215.7 g
same,APTT,9 h,18.7 s
same,Bas,9 h,0%
same,Eos,9 h,1.2%
same,Fbg,9 h,221.8 mg/dL
same,Hb,9 h,13.4 g/dL
same,Ht,9 h,39.1%
same,Lym,9 h,75.8%
same,MCH,9 h,20.9 pg
same,MCHC,9 h,34.3%
same,MCV,9 h,61 fL
same,Mono,9 h,3.2%
same,Neu,9 h,20.2%
same,PT,9 h,12.2 s
same,Plat,9 h,124 x10_4/uL
same,RBC,9 h,640.4 x10_4/ul
same,Ret,9 h,6.9%
same,WBC,9 h,65 x10_2/uL
same,KIDNEY_L,9 h,1 g
same,KIDNEY_R,9 h,1 g
same,KIDNEY_TOTAL,9 h,2 g
same,LIVER,9 h,9.1 g
same,A/G,9 h,1.5
same,ALP,9 h,994.6 IU/L
same,ALT,9 h,27.6 IU/L
same,AST,9 h,59.2 IU/L
same,BUN,9 h,9.6 mg/dL
same,CRE,9 h,0.3 mg/dL
same,Ca,9 h,10.5 mg/dL
same,Cl,9 h,101.8 meq/L
same,DBIL,9 h,0.08 mg/dL
same,GLC,9 h,210.2 mg/dL
same,IP,9 h,10.7 mg/dL
same,K,9 h,3.8 meq/L
same,LDH,9 h,169.2 IU/L
same,Na,9 h,140.8 meq/L
same,PL,9 h,143 mg/dL
same,RALB,9 h,3.3 g/dL
same,TBIL,9 h,0.1 mg/dL
same,TC,9 h,71.8 mg/dL
same,TG,9 h,62 mg/dL
same,TP,9 h,5.5 g/dL
same,gamma-GTP,9 h,0.8 IU/L
same,TERMINAL_BW,24 h,232.9 g
same,APTT,24 h,20.4 s
same,Bas,24 h,0%
same,Eos,24 h,1%
same,Fbg,24 h,230 mg/dL
same,Hb,24 h,13.6 g/dL
same,Ht,24 h,39.9%
same,Lym,24 h,78.8%
same,MCH,24 h,20.5 pg
same,MCHC,24 h,34%
same,MCV,24 h,60.4 fL
same,Mono,24 h,3.4%
same,Neu,24 h,16.4%
same,PT,24 h,11.7 s
same,Plat,24 h,127.6 x10_4/uL
same,RBC,24 h,660.4 x10_4/ul
same,Ret,24 h,6.2%
same,WBC,24 h,97.6 x10_2/uL
same,KIDNEY_L,24 h,1 g
same,KIDNEY_R,24 h,1 g
same,KIDNEY_TOTAL,24 h,2 g
same,LIVER,24 h,11.2 g
same,A/G,24 h,1.5
same,ALP,24 h,863.4 IU/L
same,ALT,24 h,35 IU/L
same,AST,24 h,64.4 IU/L
same,BUN,24 h,16 mg/dL
same,CRE,24 h,0.4 mg/dL
same,Ca,24 h,10.9 mg/dL
same,Cl,24 h,101.8 meq/L
same,DBIL,24 h,0.098 mg/dL
same,GLC,24 h,202.8 mg/dL
same,IP,24 h,7.2 mg/dL
same,K,24 h,4 meq/L
same,LDH,24 h,204.6 IU/L
same,Na,24 h,141 meq/L
same,PL,24 h,154.4 mg/dL
same,RALB,24 h,3.4 g/dL
same,TBIL,24 h,0.2 mg/dL
same,TC,24 h,77 mg/dL
same,TG,24 h,118.2 mg/dL
same,TP,24 h,5.6 g/dL
same,gamma-GTP,24 h,0.8 IU/L
